In one series the test system is Propionibacterium acnes. Briefly: in vitro anti-anaerobic assay, minimum inhibitory concentration. The series is classed as cell-based, Propionibacterium acnes (ATCC 6919). The following applies: Cutibacterium acnes, ATCC6919, ATCC 6919, 24 hours at 37° C., range of three runs, read-out: Minimum Inhibitory Concentrations, Propionibacterium acnes. As for the experimental part:
(§1) The results of in vitro assays for a number of compounds according to the invention are given in Table 1, which follows the Examples.
(§2) These tests were conducted by mixing a series of decreasing amounts of the compound under test with a liquid nutrient medium that had been inoculated with one of the test organisms. These preparations were incubated for 24 hours at 37° C. under anaerobic conditions and were then examined for the presence of growth as indicated by the turbidity in the liquid medium. Results were recorded as the lowest concentrations, in mg/l, of test compound that prevented growth of the test organisms (minimal inhibitory concentrations). Each test was run three times and the range of results are indicated.

Series [1] relates to Desulfovibrio desulfuricans. Put plainly: in vitro assay against non-pathogenic anaerobe, minimum inhibitory concentration. The following applies: 24 hours at 37° C., anaerobic, range of three runs; for MIC: Desulfovibrio desulfuricans, 24 h. The series is classed as cell-based. As for the experimental part: These preparations were incubated for 24 hours at 37° C. under anaerobic conditions and were then examined for the presence of growth as indicated by the turbidity in the liquid medium. […] The tests were conducted as described for the pathogenic organisms discussed above.

The subject of another series is Bacterioides fragilis. Put plainly: in vitro anti-anaerobic assay, minimum inhibitory concentration. The series is classed as cell-based, Bacterioides fragilis (ATCC 23745). The following applies: ATCC 23745, 24 hours at 37° C., range of three runs; for MIC: 24 h, read-out: Minimum Inhibitory Concentrations, Bacterioides fragilis. The protocol: as §1, §2
In another series the test system is Clostridium sporogenes. The series is described as above. The following applies: ATCC 19404, 24 hours at 37° C., range of three runs; for MIC: Clostridium sporogenes, ATCC19404, 24 h, read-out: Minimum Inhibitory Concentrations, Clostridium sporogenes. In kind it is cell-based, Clostridium sporogenes (ATCC 19404). As for the experimental part: as §1, §2
For series [2], the system named is Trichophyton mentagrophytes. Put plainly: in vitro anti-fungal assay, minimum inhibitory concentration. Conditions: aerobic, 30° C., in duplicate, read-out: Minimum Inhibitory Concentrations, Trichophyton mentagrophytes. The series is classed as cell-based. The protocol: as §2
(§3) The tests were conducted as described for the anaerobic bacteria with the exception that the organisms were incubated aerobically and kept at 30° C., apart from C.albicans which was kept at 37° C. Each test was run in duplicate.

The subject of another series is Candida albicans. The series is described as above. The series is classed as cell-based. The protocol: as §2, §3
Another series relates to Microsporum canis. The description is as above. The following applies: aerobic, 30° C., in duplicate, read-out: Minimum Inhibitory Concentrations, Microsporum canis. In kind it is cell-based. The protocol:
as §2, §3

For series [3] the following is noted: reported in the literature; cited from earlier work.
A further series deals with anaerobic bacteria. Conditions: known from the literature; cited from earlier work.
The next series has as its system Trichophyton rubrum. Put plainly: in vitro anti-fungal assay, minimum inhibitory concentration. The series is classed as cell-based. Conditions: aerobic, 30° C., in duplicate, read-out: Minimum Inhibitory Concentrations, Trichophyton rubrum. The protocol: as §2, §3
For a further series, the system named is Epidermophyton floccosom. The series is described as above. In kind it is cell-based, Epidermophyton floccosum. Conditions: aerobic, 30° C., in duplicate, read-out: Minimum Inhibitory Concentrations, Epidermophyton floccosom. As for the experimental part:
as §2, §3

Where [4] appears, read: AIP-BREWER, read-out: Minimum Inhibitory Concentrations, D.desulfuricans AIP-BREWER.
The mark [5] stands for this setting: API SW2, read-out: Minimum Inhibitory Concentrations, D.desulfuricans API SW2.
[6] abbreviates: API-CORE, read-out: Minimum Inhibitory Concentrations, Desulfovibrio desulfuricans API-CORE.
The mark [7] stands for this setting: strain 3153, aerobic, 37° C., in duplicate, read-out: Minimum Inhibitory Concentrations, C.albicans 3153.
Where [8] appears, read: strain A, aerobic, 37° C., in duplicate, read-out: Minimum Inhibitory Concentrations, Candida albicans A.
The mark [9] stands for this setting: strain B, aerobic, 37° C., in duplicate, read-out: Minimum Inhibitory Concentrations, C.albicans B.
[10] abbreviates: strain GB, aerobic, 37° C., in duplicate, read-out: Minimum Inhibitory Concentrations, C.albicans GB.

This is an account of results in patent US4377697A, “Imidazole hydrazone and hydrazine derivatives” (priority 1982, dated 1983).

≈ marks a conversion by molar mass, not a printed value. Where a name gives a salt, the structure may show the parent alone. Read-outs that look alike come from different tables or passages of the source.

Take `Clc1cc(Cl)c(NN=C2c3ccccc3CCCCC2n2ccnc2)c(Cl)c1` (centres unmarked) [3 (c), 6-(1H-Imidazol-1-yl)-7,8,9,10-tetrahydro-5(6H)-benzocyclooctanone, 2,4,6-trichlorophenylhydrazone hydrochloride]: the MIC is 2.5 µg/mL in the series with Propionibacterium acnes; 0.5 to 0.75 µg/mL in series [1] (setting [4]); 0.5 to 0.75 µg/mL in series [1] (setting [5]); 0.75 to 1 µg/mL in [1] (setting [6]); 2.5 µg/mL in the series on Bacterioides fragilis; 0.5 to 1 µg/mL with Clostridium sporogenes.

Regarding `Clc1ccc(NN=C2c3ccccc3CCCC2n2ccnc2)c(Cl)c1` (centres unmarked) [1 (b), 6-(1H-imidazol-1-yl)-6,7,8,9-tetrahydro-5-benzocycloheptanone, 2,4-dichlorophenylhydrazone, hydrochloride], the MIC in series [1] (setting [4]) is 0.5 to 0.75 µg/mL; in series [1] (setting [5]) it was 0.5 to 1 µg/mL; in series [1] (setting [6]) it was 0.5 µg/mL. The “Minimum Inhibitory Concentrations, Bacterioides fragilis” value in the series on Bacterioides fragilis (hydrochloride) fell in the range of 0.5 to 1.0 mg/L. Further, the “Minimum Inhibitory Concentrations, Clostridium sporogenes” value in the series on Clostridium sporogenes (hydrochloride) lay within 0.5 to 1.0 mg/L.

With `Clc1cc(Cl)c(NN=C2c3ccc(Cl)cc3CCCC2n2ccnc2)c(Cl)c1` (centres unmarked) [3 (b), 2-Chloro-6-(1H-imidazol-1-yl)-6,7,8,9-tetrahydro-5-benzocycloheptanone,2,4,6-trichlorophenylhydrazone hydrochloride], the MIC is 5 µg/mL with Propionibacterium acnes; 25 µg/mL in series [2]; 6.2 µg/mL in the series with Candida albicans (setting [7]); 6.2 µg/mL in the series on Candida albicans (setting [8]); 6.2 µg/mL in the series with Candida albicans (setting [9]); 6.2 µg/mL in the series on Candida albicans (setting [10]). The MIC is 25 µg/mL in the series on Microsporum canis; 0.75 µg/mL in series [1] (setting [4]); 0.75 to 2.5 µg/mL in series [1] (setting [5]); 0.75 to 1 µg/mL in [1] (setting [6]); 0.75 to 1 µg/mL with Bacterioides fragilis; 0.75 to 1 µg/mL in the series with Clostridium sporogenes.

As to `Cc1ncc([N+](=O)[O-])n1CCO` [Metronidazole, metronidazole, reference compound], the MIC in the series on Propionibacterium acnes is above 100 µg/mL; in series [1] (setting [4]), 0.5 µg/mL (≈ 2.92 µM); in [1] (setting [5]) it was 0.5 µg/mL (≈ 2.92 µM); in [1] (setting [6]), 0.5 µg/mL (≈ 2.92 µM); in the series on Bacterioides fragilis, 0.5 µg/mL (≈ 2.92 µM); in the series with Clostridium sporogenes it was 0.5 µg/mL (≈ 2.92 µM). Besides, the teratogenicity entry in series [3] is “teratogenic”. Also, the “activity against anaerobic bacteria” value with anaerobic bacteria was “active against anaerobic bacteria”.

Regarding `Clc1ccc(NN=C2c3sccc3CCCC2n2ccnc2)c(Cl)c1` (centres unmarked) [1 (j), 7-(1H-Imidazol-1-yl)-4,5,6,7-tetrahydro-8H-cyclohepta[b]-thiophen-8-one, 2 ,4-dichlorophenylhydrazone hydrogen oxalate], the MIC with Propionibacterium acnes is 5 µg/mL; in series [1] (setting [4]) it was 0.5 to 0.75 µg/mL; in [1] (setting [5]) it was 0.75 to 1 µg/mL; in series [1] (setting [6]), 0.75 to 1 µg/mL; in the series on Bacterioides fragilis it was 0.75 to 1 µg/mL; in the series with Clostridium sporogenes it was 1 to 2.5 µg/mL.

For `Clc1cc(Cl)c(NN=C2c3ccccc3CCCC2n2ccnc2)c(Cl)c1` (centres unmarked) [3 (d), 6-(1H-Imidazol-1-yl)-6,7,8,9-tetrahydro-5-benzocycloheptanone, 2,4,6-trichlorophenylhydrazone hydrogen oxalate], the MIC in series [2] is above 100 µg/mL; in the series with Trichophyton rubrum it was 1.5 µg/mL; in the series on Candida albicans (setting [7]) it was 12.5 µg/mL; in the series on Candida albicans (setting [8]), 6.2 µg/mL; in the series on Candida albicans (setting [9]) it was 6.2 µg/mL; with Candida albicans (setting [10]) it was 12.5 µg/mL. Also, the MIC with Microsporum canis worked out at 6.2 µg/mL.

In the case of `Clc1ccc(NN=C2c3ccccc3CCCC2n2ccnc2)c(Cl)c1` (centres unmarked) [1 (a), 6-(1H-imidazol-1-yl)6,7,8,9-tetrahydro-5-benzocycloheptanone, 2,4-dichlorophenylhydrazone, hydrogen oxalate], the MIC was 2.5 µg/mL in the series on Propionibacterium acnes, 1 to 2.5 µg/mL in the series with Bacterioides fragilis and 0.5 to 2.5 µg/mL in the series with Clostridium sporogenes. Further, the “Minimum Inhibitory Concentrations, D.desulfuricans AIP-BREWER” value in [1] (AIP-BREWER) was found to be 0.5 mg/L. Also, the “Minimum Inhibitory Concentrations, D.desulfuricans API SW2” value in series [1] (API SW2) stood at 0.5 mg/L.

Regarding `Clc1ccc(COC(Cn2ccnc2)c2ccc(Cl)cc2Cl)c(Cl)c1` (centres unmarked) [Miconazole, reference compound], the MIC in series [2] worked out at 1.5 µg/mL (≈ 3.6 µM); in the series with Trichophyton rubrum it was 3.1 µg/mL (≈ 7.45 µM); with Candida albicans (read-out: Minimum Inhibitory Concentrations, C.albicans 3153), 12.5 µg/mL (≈ 30 µM); with Candida albicans (read-out: Minimum Inhibitory Concentrations, C.albicans B), 6.2 µg/mL (≈ 14.9 µM); with Candida albicans (read-out: Minimum Inhibitory Concentrations, C.albicans GB) it was 12.5 µg/mL (≈ 30 µM); in the series on Candida albicans (read-out: Minimum Inhibitory Concentrations, Candida albicans A) it was 6.2 µg/mL (≈ 14.9 µM). The MIC with Microsporum canis and with Epidermophyton floccosom was 6.2 µg/mL (≈ 14.9 µM) each time.

As to `Clc1ccc(NN=C2c3ccccc3CCCCC2n2ccnc2)c(Cl)c1` (centres unmarked) [1 (d), 6-(1H-Imidazol-1-yl)-7,8,9,10-tetrahydro-5(6H)-benzocyclooctanone, 2,4-dichlorophenylhydrazone hydrochloride], the MIC with Propionibacterium acnes is 0.5 to 2.5 µg/mL; in [1] (setting [4]), 0.5 to 1 µg/mL; in series [1] (setting [5]) it was 0.5 to 0.75 µg/mL; in series [1] (setting [6]), 0.5 to 2.5 µg/mL; in the series on Bacterioides fragilis, 1 to 2.5 µg/mL; in the series on Clostridium sporogenes, 0.5 to 0.75 µg/mL.

As to `Cl.Clc1cc(Cl)c(NN=C2c3ccccc3OCCC2n2ccnc2)c(Cl)c1` (centres unmarked) [3 (i), 3,4-Dihydro-4-(1H-imidazol-1-yl)-1-benzoxepin-5(2H)-one, 2,4,6-trichlorophenylhydrazone hydrochloride], the MIC in series [2] is 3.1 µg/mL; in the series on Trichophyton rubrum it was 6.2 µg/mL; in the series on Candida albicans (setting [7]), 12.5 µg/mL; in the series with Candida albicans (setting [8]), 12.5 µg/mL; in the series on Candida albicans (setting [9]) it was 12.5 µg/mL; in the series with Microsporum canis it was 3.1 µg/mL. Moreover, the MIC in the series with Epidermophyton floccosom was 3.1 µg/mL.

For the compound `Clc1cc(Cl)c(NN=C2c3ccsc3CCCC2n2ccnc2)c(Cl)c1` (centres unmarked) [3 (l), 5-(1H-Imidazol-1-yl)-5,6,7,8-tetrahydro-4H-cyclohepta[b]thiophen-4-one,2,4,6-trichlorophenylhydrazone hydrogen oxalate], the MIC in series [2] was found to be 25 µg/mL; with Trichophyton rubrum it was 12.5 µg/mL; in the series with Candida albicans (setting [7]), 12.5 µg/mL; in the series with Candida albicans (setting [8]), 6.2 µg/mL; in the series on Candida albicans (setting [9]), 6.2 µg/mL; with Microsporum canis, 12.5 µg/mL. Further, the MIC in the series with Epidermophyton floccosom came out at 6.2 µg/mL.
